According to patent US6689806B1, “Indolinone compounds as kinase inhibitors” (Sugen, Inc., priority 1999, dated 2004):
Like-named read-outs stand apart in the source and are kept apart here.

Legend:
Her2 = biological target: T1, Her2 (Homo sapiens, UniProt P04626); assay: EGF-induced Her2-driven BrdU incorporation; assay type: cell-based; conditions: 3T3 cells with EGF-R/Her2 chimeric receptor, EGF 2 nM, read-out: BrdU DNA syn. HER2 IC50
T1 construct: fused on or other part: P00533 (Epidermal growth factor receptor)
T1 sequence (P04626 676-1255 limits assumed): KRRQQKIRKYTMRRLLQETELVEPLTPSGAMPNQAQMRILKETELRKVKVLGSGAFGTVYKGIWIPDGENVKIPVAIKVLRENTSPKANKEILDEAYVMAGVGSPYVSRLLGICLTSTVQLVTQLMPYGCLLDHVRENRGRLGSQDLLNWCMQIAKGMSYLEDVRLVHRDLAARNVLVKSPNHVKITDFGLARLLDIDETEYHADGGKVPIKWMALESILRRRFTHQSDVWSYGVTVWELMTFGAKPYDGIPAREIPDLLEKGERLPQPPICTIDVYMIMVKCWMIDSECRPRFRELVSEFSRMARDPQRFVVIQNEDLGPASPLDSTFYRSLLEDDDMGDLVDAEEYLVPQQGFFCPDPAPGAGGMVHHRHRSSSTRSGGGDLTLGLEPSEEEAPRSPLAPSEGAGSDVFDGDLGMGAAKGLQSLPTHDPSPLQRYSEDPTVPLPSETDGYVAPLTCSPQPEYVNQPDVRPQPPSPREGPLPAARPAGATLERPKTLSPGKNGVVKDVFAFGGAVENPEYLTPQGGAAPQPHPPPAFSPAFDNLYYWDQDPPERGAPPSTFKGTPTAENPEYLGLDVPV
Method: (§1) The cellular/biologic assays described herein measure the amount of DNA made in response to activation of a test kinase, which is a general measure of a proliferative response. The general procedure for this assay is as follows: a compound is introduced to cells expressing the test kinase, either naturally or recombinantly, for some period of time after which, if the test kinase is a receptor, a ligand known to activate the receptor is added. After incubation at least overnight, a DNA labeling reagent such as Bromodeoxy-uridine (BrdU) or 3H-thymidine is added. The amount of labeled DNA is detected with either an anti-BrdU antibody or by measuring radioactivity and is compared to control cells not contacted with a test compound.
EGF-Induced Her2-Driven BrdU Incorporation
(8) 3T3 cell line engineered to express a chimeric receptor having the extra-cellular domain of EGF-R and the intra-cellular domain of Her2.
(1) Cells are seeded at 8000 cells/well in DMEM, 10% CS, 2 mM Gln in a 96-well plate. Cells are incubated overnight at 37° C. in 5% CO2.
(§2) (2) After 24 hours, the cells are washed with PBS, and then are serum starved in serum free medium (0% CS DMEM with 0.1% BSA) for 24 hours.
(§3) (3) On day 3, ligand (EGF=2 nM, prepared in DMEM with 0.1% BSA) and test compounds are added to the cells simultaneously. The negative control wells receive serum free DMEM with 0.1% BSA only; the positive control cells receive the ligand (EGF) but no test compound. Test compounds are prepared in serum free DMEM with ligand in a 96 well plate, and serially diluted for 7 test concentrations.
(4) After 20 hours of ligand activation, diluted BrdU labeling reagent (1:100 in DMEM, 0.1% BSA) is added and the cells are incubated with BrdU (final concentration=[…]) for 1.5 hours.
(§4) (10) The absorbance of the samples are measured at 410 nm (in “dual wavelength” mode with a filter reading at 490 nm, as a reference wavelength) on a Dynatech ELISA plate reader.

EGFR [1] = biological target: T2, EGFR (Homo sapiens, UniProt P00533); assay: EGF-induced BrdU incorporation assay; assay type: cell-based; design: expressed in transfected cells; host or cells: 3T3; conditions: 3T3 cells expressing human EGF-R, EGF 2 nM, read-out: BrdU DNA syn. EGFr IC50
T2 sequence (P00533 25-1210): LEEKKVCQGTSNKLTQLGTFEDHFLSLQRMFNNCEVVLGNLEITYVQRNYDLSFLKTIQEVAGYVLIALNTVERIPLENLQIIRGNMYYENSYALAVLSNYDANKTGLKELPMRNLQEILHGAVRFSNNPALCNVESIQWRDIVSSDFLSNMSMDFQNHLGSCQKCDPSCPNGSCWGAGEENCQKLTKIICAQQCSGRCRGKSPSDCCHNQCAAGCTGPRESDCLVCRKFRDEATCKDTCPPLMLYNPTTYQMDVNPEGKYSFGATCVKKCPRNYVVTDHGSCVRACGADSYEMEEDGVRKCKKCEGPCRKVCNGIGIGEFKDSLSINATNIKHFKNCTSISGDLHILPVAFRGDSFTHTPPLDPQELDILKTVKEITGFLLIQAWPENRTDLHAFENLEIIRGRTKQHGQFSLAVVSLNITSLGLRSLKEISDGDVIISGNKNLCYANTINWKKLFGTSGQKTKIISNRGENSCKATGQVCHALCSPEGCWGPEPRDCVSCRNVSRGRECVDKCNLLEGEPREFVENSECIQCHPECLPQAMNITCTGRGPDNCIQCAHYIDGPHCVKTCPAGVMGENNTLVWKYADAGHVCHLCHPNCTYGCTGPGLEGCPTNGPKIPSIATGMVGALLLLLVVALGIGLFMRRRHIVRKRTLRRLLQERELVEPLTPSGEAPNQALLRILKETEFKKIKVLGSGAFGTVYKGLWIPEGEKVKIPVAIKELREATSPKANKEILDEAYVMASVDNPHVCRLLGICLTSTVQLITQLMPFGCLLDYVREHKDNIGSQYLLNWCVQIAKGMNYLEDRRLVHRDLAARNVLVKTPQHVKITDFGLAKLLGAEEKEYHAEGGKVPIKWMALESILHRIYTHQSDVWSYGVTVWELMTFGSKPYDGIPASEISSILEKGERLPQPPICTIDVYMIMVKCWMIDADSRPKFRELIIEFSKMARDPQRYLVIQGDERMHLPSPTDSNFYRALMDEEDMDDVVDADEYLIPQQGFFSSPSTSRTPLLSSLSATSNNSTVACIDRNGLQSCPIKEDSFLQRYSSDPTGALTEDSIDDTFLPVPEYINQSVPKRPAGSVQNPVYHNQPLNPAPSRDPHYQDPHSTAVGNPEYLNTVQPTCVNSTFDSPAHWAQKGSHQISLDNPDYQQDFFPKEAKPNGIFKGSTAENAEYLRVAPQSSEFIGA
Method: as §1
EGF-Induced BrdU Incorporation Assay
(8) 3T3 cell line genetically engineered to express human EGF-R.
(1) Cells are seeded at 8000 cells/well in 10% CS, 2 mM Gin in DMEM, in a 96 well plate. Cells are incubated overnight at 37° C. in 5% CO2.
as §2
as §3, with “(EGF, 2” for “(EGF=2”, “0.1%/BSA)” for “0.1% BSA)”
(4) After 20 hours of ligand activation, diluted BrdU labeling reagent (1: 100 in DMEM, 0.1% BSA) is added and the cells are incubated with BrdU (final concentration=10 μM) for 1.5 hours.
as §4

PDGFR = PDGFR (Homo sapiens, UniProt P09619); assay: Biochemical PDGFR assay (ELISA); design: expressed in transfected cells; host or cells: NIH 3T3; conditions: read-out: PDGFr biochem IC50
PDGFR, sequence (P09619 33-1106): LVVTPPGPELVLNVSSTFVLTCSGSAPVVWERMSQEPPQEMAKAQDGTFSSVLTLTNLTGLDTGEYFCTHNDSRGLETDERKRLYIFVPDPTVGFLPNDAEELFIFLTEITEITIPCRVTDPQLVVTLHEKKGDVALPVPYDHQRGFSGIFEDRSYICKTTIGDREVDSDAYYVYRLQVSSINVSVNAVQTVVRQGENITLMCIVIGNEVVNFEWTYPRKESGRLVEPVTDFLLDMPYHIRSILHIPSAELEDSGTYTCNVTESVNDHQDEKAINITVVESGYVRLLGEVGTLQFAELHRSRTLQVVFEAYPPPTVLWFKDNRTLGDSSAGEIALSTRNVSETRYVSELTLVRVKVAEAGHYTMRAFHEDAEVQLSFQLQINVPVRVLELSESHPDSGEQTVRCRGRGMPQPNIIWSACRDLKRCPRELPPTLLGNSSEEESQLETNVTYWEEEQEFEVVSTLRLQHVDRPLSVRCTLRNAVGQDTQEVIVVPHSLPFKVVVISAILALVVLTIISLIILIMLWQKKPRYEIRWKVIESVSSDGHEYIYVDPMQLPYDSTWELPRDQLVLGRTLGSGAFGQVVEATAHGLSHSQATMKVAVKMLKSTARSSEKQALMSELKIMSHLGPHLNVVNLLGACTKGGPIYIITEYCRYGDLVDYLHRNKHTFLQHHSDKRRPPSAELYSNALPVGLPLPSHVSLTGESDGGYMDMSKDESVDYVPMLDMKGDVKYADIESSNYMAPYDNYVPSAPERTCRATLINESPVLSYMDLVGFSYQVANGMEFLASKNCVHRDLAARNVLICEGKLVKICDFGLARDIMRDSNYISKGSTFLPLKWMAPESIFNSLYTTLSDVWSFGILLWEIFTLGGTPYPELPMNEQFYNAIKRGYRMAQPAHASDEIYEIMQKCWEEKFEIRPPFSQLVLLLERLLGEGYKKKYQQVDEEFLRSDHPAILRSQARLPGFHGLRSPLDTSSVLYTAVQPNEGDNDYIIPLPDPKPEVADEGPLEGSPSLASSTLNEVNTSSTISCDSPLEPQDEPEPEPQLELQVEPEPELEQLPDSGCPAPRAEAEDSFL
Method: This assay measures the in vitro kinase activity of PDGFR using ELISA.
6. PDGFR-β expressing NlH 3T3 cell lysate.
1. Coat Corning 96 well ELISA plates with 0.5 μg 28D4C10 in 100 μL PBS per well, store overnight at 4° C.
5. Dilute lysate in HNTG (10 μg lysate/100 μL HNTG)
6. Add 100 μL of diluted lysate to each well. Shake at room temperature for 60 min.
8. Add 80 μL working kinase buffer mix to ELISA plate containing captured PDGFR.
9. Dilute test compound 1:10 in TBS in 96-well polypropylene plates (i.e., 10 μL compound+90 μL TBS).
10. Add 10 μL diluted test compound to ELISA plate.
11. Incubate for 30 minutes while shaking at room temperature.
12. Add 10 μL ATP directly to all wells except negative control well (final well volume should be approximately 100 μL with 20 μM ATP in each well.) Incubate 30 minutes while shaking.
13. After 30 minutes, stop reaction by adding 10 μL of 200 mM EDTA (pH 8.0) to each well.
15. Add 100 μL anti-phosphotyrosine (1:3000 dilution in TBST) per well. Incubate 30-45 min. at room temperature, with shaking.
17. Add 100 μL Biosource Goat anti-rabbit IgG peroxidase conjugate (1:2000 dilution in TBST) to each well. Incubate 30 min. at room temperature, with shaking.
19. Add 100 μL of ABTS/H2O2 solution to each well.
22. Read assay on Dynatech MR7000 ELISA reader: test filter: 410 nM, reference filter: 630 nM.

EGFR [2] = biological target: T2, EGFR; assay: Biochemical EGFR assay (ELISA); design: A431 cell lysate; endogenous in cells; host or cells: A431; conditions: read-out: EGFr biochem IC50
How it was run: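 EGFR is captured from cell lysate onto SUMO1-coated plates and incubated with compound diluted in TBS. The kinase reaction is stopped after 5 min with EDTA. Substrate phosphotyrosine is detected with anti-phosphotyrosine and peroxidase-linked secondary antibody, then ABTS/H2O2 read at 410 nm (reference 630 nm).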

[3] = Table 7, in vitro kinase activity
[4] = Table 5, in vitro kinase activity

SMILES	IC50 (Her2; Table 7) [µM]	IC50 (EGFR [1]; Table 7) [µM]	IC50 (PDGFR; [3]) [µM]	IC50 (EGFR [2]; [3]) [µM]	IC50 (Her2; Table 5) [µM]	IC50 (EGFR [1]; Table 5) [µM]	IC50 (PDGFR; [4]) [µM]	IC50 (EGFR [2]; [4]) [µM]
Cc1ccc(O)c(C=C2C(=O)Nc3cccc(CCO)c32)n1 (racemic) [IN-022, 4-(2-Hydroxy-ethyl)-3-(3-hydroxy-6-methyl-pyridin-2-ylmethylene)-1,3-dihydro-indol-2-one]	> 50	> 50	> 100	> 100				
COc1ccc(CC2C(=O)Nc3ccc(F)cc32)cc1C1CCCC1 (stereo not shown) [AAI-5, 3-(3-Cyclopentyl-4-methoxybenzyl)-5-fluoro-1,3-dihydroindol-2-one]					32.7	30	> 100	> 100
COc1ccc(CC2C(=O)Nc3cc(NC(C)=O)ccc32)cc1-c1cccs1 (stereo not shown) [AAI-6, N-[3-(4-Methoxy-3-thiophen-2-ylbenzyl)-2-oxo-2,3-dihydro-1H-indol-6-yl]-acetamide]					27.3	> 50	> 100	> 100
CC(=O)Nc1ccc2c(c1)NC(=O)C2Cc1ccc(OCCN2CCOCC2)c(C2CCCCC2)c1 (stereo not shown) [AAI-7, N-{3-[3-Cyclohexyl-4-(2-morpholin-4-ylethoxy)-benzyl]-2-oxo-2,3-dihydro-1H-indol-6-yl}-acetamide]					6.8	28.1	> 100	> 100
COc1ccc(CC2C(=O)Nc3ccc(CCN4CCOCC4)cc32)cc1-c1ccsc1 (stereo not shown) [AAI-8, 3-(4-Methoxy-3-thiophen-3-ylbenzyl)-5-(2-morpholin-4-ylethyl)-1,3-dihydroindol-2-one]					11.5	> 50	> 100	> 100
COc1c(C(C)C)cc(CC2C(=O)Nc3ccccc32)cc1C(C)C (stereo not shown) [AAI-10, 3-(3,5-Diisopropyl-4-methoxybenzyl)-1,3-dihydroindol-2-one]					34.1	> 50	> 100	> 100
O=C1Nc2ccc(F)cc2C1Cc1ccc(O)c(C2CCCC2)c1 (stereo not shown) [AAI-11, 3-(3-Cyclopentyl-4-hydroxybenzyl)-5-fluoro-1,3-dihydroindol-2-one]					> 50	> 50	> 100	> 100
COc1cccc(-c2ccc3c(c2)NC(=O)C3Cc2ccccc2O)c1 (stereo not shown) [AAI-13, 3-(2-Hydroxybenzyl)-6-(3-methoxyphenyl)-1,3-dihydroindol-2-one]					> 50	> 50	> 100	> 100
Cc1cccc2c1C(Cc1ccc3[nH]ccc3c1)C(=O)N2 (stereo not shown) [AAI-16, 3-(1H-Indol-5-ylmethyl)-4-methyl-1,3-dihydroindol-2-one]					> 50	> 50	> 100	> 100
O=C1Nc2ccccc2C1Cc1ccc2[nH]ccc2c1 (stereo not shown) [AAI-17, 3-(1H-Indol-5-ylmethyl)-1,3-dihydroindol-2-one]					> 50	> 50	> 100	> 100
Cc1[nH]c(CC2C(=O)Nc3ccccc32)c(C)c1CCCN(C)C (stereo not shown) [AAI-18, 3-[4-(3-Dimethylaminopropyl)-3,5-dimethyl-1H-pyrrol-2-ylmethyl]-1,3-dihydroindol-2-one]					> 50	> 50	0.56	> 100
COc1ccccc1-c1ccc2c(c1)NC(=O)C2Cc1[nH]c(C)c(CCCN(C)C)c1C (stereo not shown) [AAI-20, 3-[4-(3-Dimethylamino-propyl)-3,5-dimethyl-1H-pyrrol-2-ylmethyl]-6-(2-methoxy-phenyl)-1,3-dihydro-indol-2-one]					29.2	38.5	2.13	> 100
COc1cccc(-c2ccc3c(c2)NC(=O)C3Cc2[nH]c(C)c(CCCN(C)C)c2C)c1 (stereo not shown) [AAI-21, 3-[4-(3-Dimethylaminopropyl)-3,5-dimethyl-1H-pyrrol-2-ylmethyl]-6-(3-methoxyphenyl)-1,3-dihydroindol-2-one]					> 50	27.8	3.42	48.7
